Consider six compounds from PubChem BioAssay (NCI).

The structures appear in SMILES notation. “And” between values parts separate entries of the source, which are not always exact repeats. Equal values may be shown once.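 Each compound was tested at five concentrations against cells in 96-well plates for 48 hours. Abbreviation: GI50, concentration required for 50% inhibition of growth. TGI: total growth inhibition.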

Assay in all cases: inhibition of tumour cell growth, NCI panel, 48 h
Assay [1] relates to A498 renal.
Assay [2] relates to HCT-15 colon.
For assay [3], the system named is IGROV1 ovarian.
Assay [4] deals with K-562 leukemia.
The test system of assay [5] is KM12 colon.
The test system of assay [6] is PC-3 prostate.
Assay [7] concerns SF-268 CNS.
Assay [8] has as its system SF-539 CNS.
Assay [9] deals with SK-OV-3 ovarian.
The test system of assay [10] is SNB-19 CNS.

For `CSC1=C(N)C(=O)c2[nH]cc(CO)c2C1=N`, the GI50 in assay [1] is 0.132 µM; in [2], 0.163 µM; in assay [3], 0.225 µM; in assay [4], 0.221 µM; in [5], 0.418 µM; in assay [6], 0.212 µM. In addition, the GI50 in [7] was 0.246 µM; in assay [8], 0.171 µM; in assay [9], 0.623 µM; in assay [10], 0.155 µM. Further, the TGI came out at 0.269 µM in [1]; 0.382 µM in [2]; 0.521 µM in [3]; 0.534 µM in assay [4]; 2.2 µM in assay [5]; 0.916 µM in assay [6]. Also, the TGI was determined as 0.873 µM in assay [7], 0.309 µM in assay [8], 1.85 µM in assay [9] and 0.295 µM in assay [10].
In the case of `COc1cc2c(cc1OC)[C@H](C)N1CCc3cc(OC)c(OC)cc3[C@@H]1C2`, the TGI in assay [1], in assay [2], in [3], in [4], in [5] and in assay [6] was greater than 100 µM in each case. Also, the TGI in assay [7], in assay [8], in [9] and in [10] was greater than 100 µM each time.
Consider `COc1ccc(C/C(C)=C(/c2ccc(OCCN3CCCCC3)cc2)c2ccc(OC(=O)NCc3ccccc3)cc2)cc1`, for which the GI50 in assay [1] is 0.398 µM; in assay [2], 0.339 µM; in assay [3], 0.424 µM; in [4] it was 0.301 µM; in assay [5] it was 0.44 µM; in assay [6], 0.398 µM. Further, the GI50 was 0.413 µM in assay [7], 0.401 µM in assay [8], 0.436 µM in assay [9] and 0.459 µM in assay [10]. Further, the TGI came to 0.744 µM in assay [1]; 0.706 µM in assay [2]; 0.859 µM in assay [3]; 1.23 µM in assay [4]; 0.826 µM in assay [5]; 0.778 µM in assay [6]. Further, the TGI in assay [7] is 0.787 µM; in assay [8] it was 0.766 µM; in assay [9], 0.838 µM; in [10], 0.852 µM.
`COc1cccc(-c2c[nH]c3c(N/N=C/c4ccncc4)ncnc23)c1`: the GI50 in assay [1] was 1.96 µM; in assay [2], 1.46 µM; in [3], 3.9 µM; in assay [4] it was 1 µM; in assay [5], 1.41 µM; in [6], 4.53 µM. Further, the GI50 in [7] is 3.44 µM; in [8] it was 1.56 µM; in assay [9] it was 0.903 µM; in assay [10] it was 7.15 µM. Also, the TGI was 7.7 µM in [1]; greater than 25 µM in assay [2]; greater than 25 µM in [3]; greater than 25 µM in assay [4]; 4.9 µM in [5]; greater than 25 µM in assay [6]. The TGI was 13.3 µM in assay [7], 6.81 µM in assay [8], 3.91 µM in [9] and greater than 25 µM in assay [10].
Turning to `Cc1cc2c(cc1Cl)SC1=NN(C)C(C)N1S2(=O)=O` (stereo unspecified), the GI50 in assay [1], in assay [2], in assay [3], in assay [4], in assay [5] and in [6] was greater than 100 µM throughout. For the same compound, the GI50 in [7] is 98.1 µM; in assay [8], greater than 100 µM; in assay [9] it was greater than 100 µM; in assay [10] it was greater than 100 µM. For the same compound, the TGI in [1], in assay [2], in assay [3], in assay [4], in [5] and in assay [6] was greater than 100 µM throughout. The TGI in assay [7], in [8], in assay [9] and in assay [10] was greater than 100 µM each time.
`Cc1cccc(/C=N/NC(=S)N2CCCC2)n1`: the GI50 is 7.22 µM in assay [1]; 0.586 µM in [2]; 0.415 µM in [3]; 0.17 µM in assay [4]; 0.88 µM and 0.322 µM in [5]; 0.581 µM in assay [6]. Besides, the GI50 is 2.29 µM in assay [7], 0.753 µM in [8] and 1.4 µM in [10]. Besides, the TGI is 5.61 µM in [1]; greater than 100 µM in assay [2]; greater than 100 µM in assay [3]; greater than 100 µM in assay [4]; greater than 100 µM in [5]; greater than 100 µM in [9]. This compound also displayed a TGI in [10] greater than 34.6 µM.
